Data published in patent publication US9181193B2, “Indenoquinolone compound, preparation method and use thereof” (Second Military Medical University, PLA, priority 2010, dated 2015).

Legend:
Type in all cases: cell-based
[1] = test system: HepG2 (human hepatoma cells); assay: MTT in vitro anti-tumor activity test, HepG2
[2] = test system: MDA-MB-435 (human breast cancer cells); assay: MTT in vitro anti-tumor activity test, MDA-MB-435
[3] = test system: A549 (human lung cancer cells); assay: MTT in vitro anti-tumor activity test, A549
[4] = test system: Colo205 (human colon cancer cells); assay: MTT in vitro anti-tumor activity test, Colo205
[5] = HepG2 human hepatoma cells, MTT, 72 h
[6] = MDA-MB-435, 100 μg/mL, MTT, 72 h
[7] = MDA-MB-435 human breast cancer cells, MTT, 72 h
[8] = A549 human lung cancer cells, MTT, 72 h
[9] = Colo205 human colon cancer cells, MTT, 72 h
[10] = MTT assay, 72 h incubation, HepG2 cells
[11] = inhibition at 100 μg/mL, MTT assay, 72 h, HepG2 cells
[12] = MTT assay, 72 h incubation, MDA-MB-435 cells
[13] = inhibition at 100 μg/mL, MTT assay, 72 h, MDA-MB-435 cells
[14] = MTT assay, 72 h incubation, A549 cells
[15] = inhibition at 100 μg/mL, MTT assay, 72 h, A549 cells
[16] = MTT assay, 72 h incubation, Colo205 cells
[17] = inhibition at 100 μg/mL, MTT assay, 72 h, Colo205 cells

Structure (SMILES)	HepG2 100 μg/mL IC % ([1]; HepG2, 100 μg/mL, MTT, 72 h) [%]	HepG2 IC50 [1, 5] [µg/mL]	MDA-MB-435 100 μg/mL IC % [2, 6] [%]	MDA-MB-435 IC50 [2, 7] [µg/mL]	A549 100 μg/mL IC % ([3]; A549, 100 μg/mL, MTT, 72 h) [%]	A549 IC50 [3, 8] [µg/mL]	Colo205 100 μg/mL IC % ([4]; Colo205, 100 μg/mL, MTT, 72 h) [%]	Colo205 IC50 [4, 9] [µg/mL]	HepG2 IC50 [1, 10]	HepG2 100 μg/mL IC % [1, 11] [%]	MDA-MB-435 IC50 [2, 12] [µg/mL]	MDA-MB-435 100 μg/mL IC % [2, 13] [%]	A549 IC50 [3, 14]	A549 100 μg/mL IC % [3, 15] [%]	Colo205 IC50 [4, 16] [µg/mL]	Colo205 100 μg/mL IC % [4, 17] [%]
COc1ccc2c(c1)C(=O)c1c-2c(OCCCN(C)C)nc2ccc(OC)cc12 [Compound 16]	100	3.48	100	4.09	100	2.91	100	3.49	–	–	–	–	–	–	–	–
COc1ccc2c(c1)C(=O)c1c-2c(=O)n(CCCN(C)C)c2ccccc12 [Compound 34]	–	–	–	–	–	–	–	–	≈100 μg/mL	49.68	19.78	100	6.58 µg/mL	100	6.82	99.54
COc1ccc2c(c1)C(=O)c1c-2c(=O)n(CCN2CCCC2)c2cc(OC)c(OC)cc12 [Compound 44]	–	–	–	–	–	–	–	–	1.93 µg/mL	84.59	0.014	78.20	1.42 µg/mL	94.74	0.346	92.66
CN(C)CCCOc1nc2ccccc2c2c1-c1ccc(Cl)cc1C2=O [Compound 12]	100	3.19	100	0.585	88.18	3.04	100	1.16	–	–	–	–	–	–	–	–
COc1ccc2c(c1)C(=O)c1c-2c(OCCBr)nc2ccccc12 [Compound 30]	0	>100	31.90	>100	19.48	>100	21.11	>100	–	–	–	–	–	–	–	–
COc1ccc2c(c1)C(=O)c1c-2c(OCCn2ccnc2)nc2ccccc12 [Compound 4]	34.87	>100	48.21	>100	78.34	16.61	60.32	13.51	–	–	–	–	–	–	–	–
CCN(CC)CCn1c(=O)c2c(c3ccccc31)C(=O)c1cc(Cl)ccc1-2 [Compound 36]	–	–	–	–	–	–	–	–	61.69 µg/mL	59.74	28.86	83.69	78.22 µg/mL	61.01	28.58	79.84
O=C1c2cc(Cl)ccc2-c2c(OCCN3CCCC3)nc3ccccc3c21 [Compound 9]	82.92	15.99	100	12.28	100	5.78	71.11	7.10	–	–	–	–	–	–	–	–
COc1ccc2c(c1)C(=O)c1c-2c(OCCN2CCCCC2)nc2ccc(OC)cc12 [Compound 15]	100	5.02	99.08	6.88	100	6.95	100	3.13	–	–	–	–	–	–	–	–
COc1ccc2c(c1)C(=O)c1c-2c(=O)n(CCN(C)C)c2ccc(OC)cc12 [Compound 41]	–	–	–	–	–	–	–	–	3.36 µg/mL	85.01	0.703	77.77	≈100 μg/mL	49.27	0.632	83.62
O=C1c2cc(Cl)ccc2-c2c(OCCn3ccnc3)nc3ccccc3c21 [Compound 10]	92.06	34.93	99.70	15.02	97.57	14.48	80.16	31.06	–	–	–	–	–	–	–	–
CCN(CC)CCOc1nc2ccccc2c2c1-c1ccc(OC)cc1C2=O [Compound 2]	100	2.50	100	1.99	100	1.53	100	0.427	–	–	–	–	–	–	–	–
CN(C)CCCn1c(=O)c2c(c3ccccc31)C(=O)c1cc(Cl)ccc1-2 [Compound 40]	–	–	–	–	–	–	–	–	11.51 µg/mL	100	1.52	100	3.25 µg/mL	86.70	3.16	100
COc1ccc2c(c1)C(=O)c1c-2c(OCCN2CCCCC2)nc2cc(OC)c(OC)cc12 [Compound 24]	98.55	10.78	90.85	8.92	93.92	10.32	98.38	5.15	–	–	–	–	–	–	–	–
COc1cc2c3c(c(=O)n(CCN4CCOCC4)c2cc1OC)-c1ccc(Cl)cc1C3=O [Compound 49]	–	–	–	–	–	–	–	–	21.05 µg/mL	59.34	>100	48.01	>100 µg/mL	28.48	69.03	50.06
